Laboratory results as given in US20240366594A1, “Small Molecule Inhibitors of Formation of Neutrophil-Derived Extracellular Traps (NETosis) and Uses Thereof” (The Brigham and Women's Hospital, Inc., priority 2021, published 2024).

Test system: human neutrophils
Assay: Expansion of nuclei (area of DAPI-stained nuclei) in PMA-treated human neutrophils
Format: cell-based
Conditions: 1 μM PMA; FIGS. 1C and 1D
Method: FIGS. 1A-H. Class I/II HDACs drive NET formation • (A and B) Freshly purified human (A) or mouse (B) neutrophils were treated with the indicated HDAC inhibitors at different doses (10, 2, 0.4, 0.08 μM), or with GSK484 (10 μM), for 1 h and then stimulated with 1 μM PMA for 3 h. Cells were fixed and stained with anti-citrullinated histone H3 (CitH3) antibody. NETosis induction was measured as the level of anti-CitH3 fluorescent signal. PMA alone represents 100% of NET induction. “-”: Cells treated with the highest dose of the indicated drug but not activated with PMA. • (C and D) Human neutrophils were treated, or not, with ricolinostat or GSK484 and then stimulated with 1 μM PMA. NETosis induction was measured as area of nuclei stained with DAPI. (C) 3D reconstruction of nuclei in each treatment (grid size 7.8 μm). (D) Quantification of DAPI signal from multiple fields of view (D) (n=9 for unstimulated, not pretreated with any drug [NT] and ricolinostat, n=7 for GSK484). • (E and F) Human neutrophils were treated as in (C-D), and immunoblot analysis of the indicated proteins was performed. Relative quantification of band intensity was analyzed with ImageJ software (F). White violins plots depict the quantification of histone H3 acetylation; red violin plots depict the quantification of histone H3 citrullination. […] ROS production was measured by luminescence with luminol-HRP. […]

Compound: O=C(CCCCCCNC(=O)c1cnc(N(c2ccccc2)c2ccccc2)nc1)NO [ricolinostat]
- expansion of nuclei (area of nuclei stained with DAPI): significantly reduced
